Source: the NIST ThermoML archive (doi:10.1021/je100151b)
± gives the expanded uncertainty stated by the source.

Experiments:
[1] = mn = molality of the nth substance listed, in mol/kg; settings: 101 kPa, Liquid, m1 = 0.25
[2] = refractive index (Na D-line) (dimensionless); mn = molality of the nth substance listed, in mol/kg; settings: 101 kPa, Liquid, Standard Abbe refractometry, m1 = 0.25

[Cl][Fe][Cl] [ferrous chloride] + O
Settings	mass density, [1] [kg/m3]	refractive index, [2]
288.15 K	998.9 ± 0.4	1.3375 ± 0.0019
293.15 K	998.2 ± 0.5	1.3468 ± 0.0019
298.15 K	997 ± 0.4	1.3559 ± 0.002
303.15 K	996 ± 0.5	1.3661 ± 0.0021
308.15 K	995 ± 0.4	1.3768 ± 0.0022
313.15 K	994.5 ± 0.4	1.3874 ± 0.0022
318.15 K	993.8 ± 0.5	1.398 ± 0.0022
